Measurements published in US4918074A, “Polyazaheterocycle compounds” (Yoshitomi Pharmaceutical Industries, Ltd., priority 1984, dated 1990).

Assays:
[1] = system: blood pressure, coronary, renal and heart function; assay: Cardiovascular and renal activity in words; assay type: in vivo
[2] = Oral bioavailability in words; assay type: in vivo
[3] = system: coronary arterial blood flow; assay: Coronary vasodilating effects in the anesthetized dog; assay type: in vivo; details: Canis lupus familiaris, iv, read-out: Increase in coronary blood flow; for change in vivo at 0.3 mg/kg: 300 μg/kg
Experimental: (§1) Adult mongrel dogs were anesthetized with sodium pentobarbital (30 mg/kg i.v.). Effects of test compounds on arterial blood pressure, coronary arterial blood flow, vertebral blood flow, renal blood flow, left ventricular dp/dt max (dp/dt max) and urine volume were observed. The compounds were administered intravenously (i.v.) or intraduodenally (i.d.).

[4] = system: left ventricular dp/dt max; assay: Cardiotonic effects in the anesthetized dog; assay type: in vivo; details: Canis lupus familiaris, iv, 300 μg/kg; read-out: Increase in dp/dt max
Experimental: as §1

[5] = system: Rabbit aorta; assay: Ca2+-agonistic and antagonistic activity in rabbit aorta; details: compound 10^-6 M
Experimental: Rabbit aorta were isolated and cut into ring segments of about 2 mm. These preparations were suspended in 40 ml chambers filled with Krebs-Henseleit solution bubbled with a gas mixture of 95% O2 +5% CO2 (pH 7.4) and kept at 37° C. The contractile response to [K^+ ]o (9-48 mM) was measured in the absence or presence of test compounds (1).
That is, at lower [K^+ ]o these compounds augmented contractile force, however, at higher [K^+ ]o they produced only relaxation of aorta. [K^+ ]o, at which conversion of the effects of compounds (10^-6 M) occurred, was as follows.

[6] = system: Papillary muscle; assay: Ca2+-agonistic and antagonistic action in rabbit myocardium (papillary muscle); details: compound 10^-4 M
Experimental: Papillary muscle was isolated from rabbit heart and suspended in 40 ml chamber filled with Krebs-Henseleit solution ([Ca^2+ ]o was elevated to 5 mM) bubbled with a gas mixture of 95% O2 +5% CO2 and kept at 37° C. The preparation was electrically driven at a rate of 0.5 Hz and developed tension was observed. [K^+ ]o was varied from 5.9 mM to 27 mM in the absence and presence of test compounds.
[K^+ ]o, at which conversion of the effects of compounds (10^-4 M) occurred, was as follows.

[7] = system: left coronary blood flow; assay: Coronary blood flow after injection into left coronary artery of anesthetized dogs; assay type: in vivo; details: intracoronary injection, anesthetized dog; dose to increase CBF by half of the effect of nifedipine (3 μg)
Experimental: (§2) Dogs of either sex were anesthetized with sodium pentobarbital (30 mg/kg i.v.). Heparin (500 U/kg i.v.) was administered before making preparation. Under artificial respiration (18 strokes/min, 20 ml/kg tidal volume), left ventricular dp/dt max, and left coronary blood flow were measured (1). Test compounds were injected into the left coronary artery in a volume of 10 or 30 μl. The effects of compounds on coronary blood flow were observed and presented generally as ED50, a dose required to increase coronary blood flow by a half of the effects of nifedipine (3 μg). Similarly, the effects on dp/dt max were observed and shown as ED30, a dose required to increase dp/dt max by 30% of the efffects of isoproterenol (0.1 μg).

[8] = system: left ventricular dp/dt max; assay: Left ventricular dp/dt max after injection into left coronary artery of anesthetized dogs; assay type: in vivo; details: intracoronary injection, anesthetized dog; dose to increase dp/dt max by 30% of effect of isoproterenol (0.1 μg)
Experimental: as §2

[9] = system: arterial blood pressure; assay: Hypotensive effects in the anesthetized dog; assay type: in vivo; details: Canis lupus familiaris, iv, read-out: Hypotensive effect; for inhibition in vivo at 0.3 mg/kg: 300 μg/kg
Experimental: as §1

[10] = system: ddY strain mice; assay: Acute toxicity in mice; assay type: in vivo; details: five days after administration
Description: Compound (1), (10) and (23) were orally or intraperitoneally administered to ddY strain mice.

SMILES: CC(C)OC(=O)C1=C(COCCN)Nc2c(C#N)cnn2C1c1cccc(F)c1F (stereo not drawn) [isopropyl 5-(2-aminoethoxymethyl)-3-cyano-7-(2,3-difluorophenyl)-4,7-dihydropyrazolo[1,5-a]pyrimidine-6-carboxylate]
- Coronary vasodilating activity [1]: high-selective coronary vasodilating activity
- Diuretic activity [1]: potent diuretic activity
- Heart-depressive activity [1]: weak heart-depressive activity
- Hypotensive activity [1]: mild and long-lasting hypotensive activity
- Renal blood flow increasing activity [1]: renal blood flow increasing activity
- Bioavailability by oral administration [2]: higher bioavailability by the oral administration

SMILES: CC1=C(C(=O)OC(C)C)C(c2ccccc2C)n2nccc2N1 (stereo not drawn) [(30), 6-Isopropoxycarbonyl-5-methyl-7-(2-methylphenyl)-4,7-dihydropyrazolo[1,5-a]pyrimidine]
- change in vivo at 0.3 mg/kg [3]: 47%
- change in vivo at 0.3 mg/kg [4]: 46%
- [K+]o at which conversion of Ca2+-agonistic to Ca2+-antagonistic action occurred [5]: 28 mM
- [K+]o at which conversion of Ca2+-agonistic to Ca2+-antagonistic action occurred [6]: 15 mM

SMILES: CC1=C(C(=O)OC(C)C)C(c2ccccc2F)n2nccc2N1 (stereo not drawn) [(23), 7-(2-Fluorophenyl)-6-isopropoxycarbonyl-5-methyl-4,7-dihydropyrazolo[1,5-a]pyrimidine]
- Increase in CBF ED50 [7]: 15 µg
- Increase in dp/dt max ED30 [8]: 71 µg
- inhibition in vivo at 0.3 mg/kg [9]: 32%
- change in vivo at 0.3 mg/kg [3]: 157%
- change in vivo at 0.3 mg/kg [4]: 44%
- [K+]o at which conversion of Ca2+-agonistic to Ca2+-antagonistic action occurred [5]: 19 mM
- [K+]o at which conversion of Ca2+-agonistic to Ca2+-antagonistic action occurred [6]: 12 mM
- Survival ([10]; intraperitoneal, 250 mg/kg): All mice survived
- Survival ([10]; oral, 1,000 mg/kg): All mice survived

SMILES: CC1=C(C(=O)OC2CCCC2)C(c2ccccc2C(F)(F)F)n2nccc2N1 (stereo not drawn) [(15), 6-Cyclopentyloxycarbonyl-5-methyl-7-(2-trifluoromethylphenyl)-4,7-dihydropyrazolo[1,5-a]pyrimidine]
- Increase in CBF ED50 [7]: 1.8 µg
- Increase in dp/dt max ED30 [8]: 198 µg
- inhibition in vivo at 0.3 mg/kg [9]: 20%
- change in vivo at 0.3 mg/kg [3]: 125%
- change in vivo at 0.3 mg/kg [4]: 83%
- [K+]o at which conversion of Ca2+-agonistic to Ca2+-antagonistic action occurred [5]: 20 mM
- [K+]o at which conversion of Ca2+-agonistic to Ca2+-antagonistic action occurred [6]: 18 mM

SMILES: CC1=C(C(=O)OC(C)C)C(c2ccccc2C(F)(F)F)n2nccc2N1 (stereo not drawn) [(10), 6-Isopropoxycarbonyl-5-methyl-7-(2-trifluoromethylphenyl)-4,7-dihydropyrazolo[1,5-a]pyrimidine]
- Increase in CBF ED50 [7]: 5.7 µg
- Increase in dp/dt max ED30 [8]: 71 µg
- inhibition in vivo at 0.3 mg/kg [9]: 31%
- change in vivo at 0.3 mg/kg [3]: 132%
- change in vivo at 0.3 mg/kg [4]: 39%
- [K+]o at which conversion of Ca2+-agonistic to Ca2+-antagonistic action occurred [5]: 21 mM
- [K+]o at which conversion of Ca2+-agonistic to Ca2+-antagonistic action occurred [6]: 15 mM
- Survival ([10]; intraperitoneal, 250 mg/kg): All mice survived
- Survival ([10]; oral, 1,000 mg/kg): All mice survived

SMILES: CC1=C(C(=O)OC(C)(C)C)C(c2ccccc2C(F)(F)F)n2nccc2N1 (stereo not drawn) [(13), 6-tert-Butoxycarbonyl-5-methyl-7-(2-trifluoromethylphenyl)-4,7-dihydropyrazolo[1,5-a]pyrimidine]
- Increase in CBF ED50 [7]: 22 µg
- Increase in dp/dt max ED30 [8]: 70 µg
- change in vivo at 0.3 mg/kg [3]: 34%
- change in vivo at 0.3 mg/kg [4]: 39%
- [K+]o at which conversion of Ca2+-agonistic to Ca2+-antagonistic action occurred [5]: 24 mM
- [K+]o at which conversion of Ca2+-agonistic to Ca2+-antagonistic action occurred [6]: 14 mM

SMILES: CCOC(=O)C1=C(C)Nc2ccnn2C1c1ccccc1C(F)(F)F (stereo not drawn) [(1), 6-Ethoxycarbonyl-5-methyl-7-(2-trifluoromethylphenyl)-4,7-dihydropyrazolo[1,5-a]pyrimidine]
- [K+]o at which conversion of Ca2+-agonistic to Ca2+-antagonistic action occurred [5]: 23 mM
- [K+]o at which conversion of Ca2+-agonistic to Ca2+-antagonistic action occurred [6]: 16 mM
- Survival ([10]; intraperitoneal, 250 mg/kg): All mice survived
- Survival ([10]; oral, 1,000 mg/kg): All mice survived

SMILES: CC1=C(C(=O)OC(C)C)C(c2ccccc2Br)n2nccc2N1 (stereo not drawn) [(27), 7-(2-Bromophenyl)-6-isopropoxycarbonyl-5-methyl-4,7-dihydropyrazolo[1,5-a]pyrimidine]
- Increase in CBF ED50 [7]: 7 µg
- Increase in dp/dt max ED30 [8]: 103 µg
- inhibition in vivo at 0.03 mg/kg ([9]; 30 μg/kg): 20%
- change in vivo at 0.03 mg/kg ([3]; 30 μg/kg): 37%
- [K+]o at which conversion of Ca2+-agonistic to Ca2+-antagonistic action occurred [5]: 22 mM
- [K+]o at which conversion of Ca2+-agonistic to Ca2+-antagonistic action occurred [6]: 12 mM

SMILES: CC1=C(C(=O)OC2CCCC2)C(c2ccccc2F)n2nccc2N1 (stereo not drawn) [(25), 6-Cyclopentyloxycarbonyl-7-(2-fluorophenyl)-5-methyl-4,7-dihydropyrazolo[1,5-a]pyrimidine]
- Increase in CBF ED50 [7]: 28 µg
- Increase in dp/dt max ED30 [8]: 164 µg
- [K+]o at which conversion of Ca2+-agonistic to Ca2+-antagonistic action occurred [6]: 15 mM
